{
  "source": "paper PMC4287973",
  "about": "“Tumor cell-specific inhibition of MYC function using small molecule inhibitors of the HUWE1 ubiquitin ligase” (EMBO Molecular Medicine, 2014)",
  "key": {"HUWE1": {"target": "T1, HUWE1 (Homo sapiens, UniProt Q7Z6Z7)", "T1 construct": "expressed in transfected cells; host or cells: HeLa", "T1 sequence (Q7Z6Z7 whole entry)": "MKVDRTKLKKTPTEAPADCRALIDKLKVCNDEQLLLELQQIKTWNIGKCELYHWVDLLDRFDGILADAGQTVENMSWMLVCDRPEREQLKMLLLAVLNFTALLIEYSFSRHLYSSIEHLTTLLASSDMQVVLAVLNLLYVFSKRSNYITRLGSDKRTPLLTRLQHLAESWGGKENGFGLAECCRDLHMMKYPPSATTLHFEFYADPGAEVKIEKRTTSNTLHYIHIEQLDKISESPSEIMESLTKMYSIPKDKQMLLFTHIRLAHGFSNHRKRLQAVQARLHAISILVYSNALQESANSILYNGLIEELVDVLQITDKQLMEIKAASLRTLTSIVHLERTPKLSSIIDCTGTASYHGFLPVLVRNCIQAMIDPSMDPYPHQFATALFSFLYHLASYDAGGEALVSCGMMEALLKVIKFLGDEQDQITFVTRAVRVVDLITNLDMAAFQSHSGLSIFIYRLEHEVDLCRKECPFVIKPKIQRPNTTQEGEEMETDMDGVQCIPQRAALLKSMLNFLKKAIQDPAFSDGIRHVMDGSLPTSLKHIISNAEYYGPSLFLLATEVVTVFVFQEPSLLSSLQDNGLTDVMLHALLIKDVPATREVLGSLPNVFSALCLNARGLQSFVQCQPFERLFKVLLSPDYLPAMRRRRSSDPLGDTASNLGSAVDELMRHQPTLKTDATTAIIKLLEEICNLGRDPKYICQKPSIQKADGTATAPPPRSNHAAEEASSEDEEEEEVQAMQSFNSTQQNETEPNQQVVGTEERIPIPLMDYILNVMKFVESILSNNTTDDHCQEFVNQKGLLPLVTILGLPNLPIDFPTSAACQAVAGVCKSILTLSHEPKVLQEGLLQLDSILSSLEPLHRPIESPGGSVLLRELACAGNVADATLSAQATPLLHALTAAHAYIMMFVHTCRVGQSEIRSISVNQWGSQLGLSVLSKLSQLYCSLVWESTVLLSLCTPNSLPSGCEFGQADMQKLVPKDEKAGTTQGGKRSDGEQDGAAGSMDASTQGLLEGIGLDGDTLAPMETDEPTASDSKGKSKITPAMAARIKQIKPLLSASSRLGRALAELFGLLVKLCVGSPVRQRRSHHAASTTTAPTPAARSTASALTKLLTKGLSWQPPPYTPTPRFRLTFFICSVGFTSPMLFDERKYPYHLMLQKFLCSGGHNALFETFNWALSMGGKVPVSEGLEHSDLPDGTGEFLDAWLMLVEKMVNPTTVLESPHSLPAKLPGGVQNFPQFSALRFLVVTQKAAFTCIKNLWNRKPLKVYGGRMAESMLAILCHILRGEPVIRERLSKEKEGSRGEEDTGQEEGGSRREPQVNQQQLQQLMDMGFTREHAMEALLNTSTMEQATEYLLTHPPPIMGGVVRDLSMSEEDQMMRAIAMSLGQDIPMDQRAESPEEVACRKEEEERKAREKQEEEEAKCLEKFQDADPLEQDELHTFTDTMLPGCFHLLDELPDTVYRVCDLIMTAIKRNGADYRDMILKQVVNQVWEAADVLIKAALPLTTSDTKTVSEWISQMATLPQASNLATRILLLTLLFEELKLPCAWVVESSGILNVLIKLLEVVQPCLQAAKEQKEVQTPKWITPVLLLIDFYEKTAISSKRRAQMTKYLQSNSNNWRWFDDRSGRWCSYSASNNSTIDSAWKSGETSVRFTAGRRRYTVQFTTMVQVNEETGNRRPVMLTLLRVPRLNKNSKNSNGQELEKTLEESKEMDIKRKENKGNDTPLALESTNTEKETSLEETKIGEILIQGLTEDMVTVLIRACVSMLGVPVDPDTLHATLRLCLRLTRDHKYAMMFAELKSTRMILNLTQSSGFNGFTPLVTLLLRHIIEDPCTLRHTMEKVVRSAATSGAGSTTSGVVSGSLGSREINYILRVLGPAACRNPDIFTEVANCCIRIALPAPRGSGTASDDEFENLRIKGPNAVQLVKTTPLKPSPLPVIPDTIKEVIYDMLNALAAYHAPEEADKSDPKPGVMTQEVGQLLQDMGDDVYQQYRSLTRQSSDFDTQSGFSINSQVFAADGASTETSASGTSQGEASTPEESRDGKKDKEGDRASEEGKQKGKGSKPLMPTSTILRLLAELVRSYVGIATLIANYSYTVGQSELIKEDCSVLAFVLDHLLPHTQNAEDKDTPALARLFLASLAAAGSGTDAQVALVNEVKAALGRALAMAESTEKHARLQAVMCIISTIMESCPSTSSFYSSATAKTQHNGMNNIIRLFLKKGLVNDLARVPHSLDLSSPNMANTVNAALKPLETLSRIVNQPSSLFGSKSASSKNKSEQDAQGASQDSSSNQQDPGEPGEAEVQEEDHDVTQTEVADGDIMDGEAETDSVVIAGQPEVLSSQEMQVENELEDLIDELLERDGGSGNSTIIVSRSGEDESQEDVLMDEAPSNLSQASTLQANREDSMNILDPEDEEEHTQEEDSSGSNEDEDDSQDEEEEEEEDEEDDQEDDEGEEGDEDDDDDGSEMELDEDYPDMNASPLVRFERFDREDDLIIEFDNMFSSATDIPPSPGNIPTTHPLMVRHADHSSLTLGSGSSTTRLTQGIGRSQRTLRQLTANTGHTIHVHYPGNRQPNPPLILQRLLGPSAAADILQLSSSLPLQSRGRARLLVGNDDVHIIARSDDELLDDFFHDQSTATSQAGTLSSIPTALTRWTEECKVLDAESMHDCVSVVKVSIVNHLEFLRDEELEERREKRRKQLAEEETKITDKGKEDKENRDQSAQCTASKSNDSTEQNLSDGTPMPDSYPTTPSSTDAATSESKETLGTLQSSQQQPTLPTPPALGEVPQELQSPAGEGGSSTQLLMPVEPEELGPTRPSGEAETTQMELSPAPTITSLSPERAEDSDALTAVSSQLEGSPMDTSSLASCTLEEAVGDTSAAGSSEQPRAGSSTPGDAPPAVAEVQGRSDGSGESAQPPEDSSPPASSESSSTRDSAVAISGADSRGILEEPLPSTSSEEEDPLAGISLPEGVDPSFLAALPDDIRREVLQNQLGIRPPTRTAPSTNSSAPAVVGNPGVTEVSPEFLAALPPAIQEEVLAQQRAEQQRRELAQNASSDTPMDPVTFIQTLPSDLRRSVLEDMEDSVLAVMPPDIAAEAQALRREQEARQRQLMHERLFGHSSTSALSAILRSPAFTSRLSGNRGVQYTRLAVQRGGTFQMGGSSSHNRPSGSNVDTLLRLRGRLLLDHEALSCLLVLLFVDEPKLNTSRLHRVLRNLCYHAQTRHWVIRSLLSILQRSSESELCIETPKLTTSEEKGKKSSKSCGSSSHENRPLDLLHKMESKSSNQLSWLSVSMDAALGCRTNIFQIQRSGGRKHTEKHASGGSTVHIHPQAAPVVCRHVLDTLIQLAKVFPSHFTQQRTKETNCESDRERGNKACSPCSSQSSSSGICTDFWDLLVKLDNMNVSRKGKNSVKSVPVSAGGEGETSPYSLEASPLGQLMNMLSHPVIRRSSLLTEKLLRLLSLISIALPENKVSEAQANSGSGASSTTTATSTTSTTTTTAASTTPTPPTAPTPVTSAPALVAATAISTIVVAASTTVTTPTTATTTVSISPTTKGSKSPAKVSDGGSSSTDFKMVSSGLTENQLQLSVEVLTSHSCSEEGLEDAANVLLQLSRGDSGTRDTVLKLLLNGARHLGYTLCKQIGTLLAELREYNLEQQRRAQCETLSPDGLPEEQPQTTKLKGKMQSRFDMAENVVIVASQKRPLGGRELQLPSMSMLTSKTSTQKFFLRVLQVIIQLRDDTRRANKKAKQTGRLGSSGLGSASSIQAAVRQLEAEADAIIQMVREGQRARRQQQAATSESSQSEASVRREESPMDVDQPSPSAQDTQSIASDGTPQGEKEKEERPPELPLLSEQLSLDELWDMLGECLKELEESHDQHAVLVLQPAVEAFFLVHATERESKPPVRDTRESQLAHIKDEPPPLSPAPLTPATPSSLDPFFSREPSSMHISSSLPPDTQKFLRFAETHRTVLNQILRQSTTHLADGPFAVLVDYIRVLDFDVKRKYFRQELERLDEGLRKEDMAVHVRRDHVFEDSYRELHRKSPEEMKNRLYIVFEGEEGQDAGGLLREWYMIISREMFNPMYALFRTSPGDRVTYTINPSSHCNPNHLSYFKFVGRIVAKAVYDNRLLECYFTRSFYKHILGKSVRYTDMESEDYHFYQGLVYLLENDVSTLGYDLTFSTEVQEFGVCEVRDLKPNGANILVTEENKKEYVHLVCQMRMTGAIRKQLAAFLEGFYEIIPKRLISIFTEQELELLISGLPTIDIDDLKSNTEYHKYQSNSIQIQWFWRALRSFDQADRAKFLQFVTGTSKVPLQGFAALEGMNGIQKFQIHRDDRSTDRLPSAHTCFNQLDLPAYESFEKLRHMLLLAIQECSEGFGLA", "experiment": "In vivo (cellular) ubiquitination of MCL1 by ectopic HA-HUWE1 in HeLa cells", "format": "cell-based", "settings": "HeLa cells transfected with MCL1, His-ubiquitin, inhibitor 16 hrs, read-out: IC50 relative MCL1 ubiquitination", "description": "HeLa cells were transfected with plasmids expressing MCL1, His-ubiquitin, and HA-HUWE1. […] After lysis, ubiquitin-modified proteins were recovered by Ni-NTA-Agarose and immunoblots of the eluates were probed with an antibody against MCL1. […] At the same time, cells were irradiated with 500 J/m^2 UVB and harvested after indicated time points. Immunoblots of the lysates were probed with antibodies recognizing either MCL1 or CDK2 as control. Quantification of the MCL1 protein levels for the according experiment is shown directly below the immunoblots. Diagrams below the immunoblots show mean protein levels ± SD (n = 5). From the data, the half-life of the MCL1 protein was determined with P-values calculated using a Student's t-test. • Effects of HUWE1 inhibition on levels of TopBP1. […] Cell lysates were fractionated in chromatin-bound and soluble non-chromatin-bound fractions. Immunoblots of the soluble fraction were incubated with indicated antibodies.\nTo test the efficacy of both compounds in tissue culture, we initially confirmed observations that HUWE1 ubiquitinates and degrades MCL1 in response to DNA damage (Zhong et al, [2005]). Consistent with these published data, steady-state levels of MCL1 decreased rapidly upon UV irradiation of U2OS cells and depletion of HUWE1 both enhanced steady-state levels of MCL1 and retarded the decrease upon UV irradiation (Supplementary Fig S4A). […]"}, "NEDD4": {"target": "T2, NEDD4 (Homo sapiens, UniProt P46934)", "T2 construct": "HECT-domains of multiple ligases auto-ubiquitinate in in vitro assays containing both UBA1 and UbcH5b", "T2 sequence (P46934 984-1318 limits assumed, species assumed)": "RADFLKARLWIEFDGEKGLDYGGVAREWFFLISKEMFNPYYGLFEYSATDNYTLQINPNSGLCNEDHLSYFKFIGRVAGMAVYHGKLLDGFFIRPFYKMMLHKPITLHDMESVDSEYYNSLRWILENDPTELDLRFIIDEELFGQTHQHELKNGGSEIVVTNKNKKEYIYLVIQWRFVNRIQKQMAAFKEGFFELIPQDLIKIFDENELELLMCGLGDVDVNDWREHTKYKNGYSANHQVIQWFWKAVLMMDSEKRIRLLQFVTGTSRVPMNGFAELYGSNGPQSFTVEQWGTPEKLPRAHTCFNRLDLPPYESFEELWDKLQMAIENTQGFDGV", "experiment": "in vitro HECT-domain auto-ubiquitination assay, NEDD4", "format": "biochemical", "method": "Briefly, the HECT-domain of HUWE1 was biotin-tagged, attached to streptavidin-coated 96-well plates, and incubated with UBA1, UbcH5b, a ubiquitin-conjugating enzyme that supports HUWE1 activity in vitro (Adhikary et al, [2005]), ATP, and MYC-tagged ubiquitin. Auto-ubiquitination was detected using a europium-labeled MYC antibody and appropriate detection reagents (Fig3A). […] These assays were used to analyze the specificity of the identified inhibitors."}, "Ls174T cells": {"tested_on": "Ls174T cells", "experiment": "Crystal violet growth assay of control and partially HUWE1-depleted Ls174T cells (IC50 shift)", "format": "cell-based", "settings": "Homo sapiens, 120 h, crystal violet after five days", "experimental": "Partial shRNA-mediated depletion of HUWE1 led to a moderate, but highly significant reduction in IC50 value for growth inhibition by BI8622, arguing that growth inhibition is an on-target effect of the inhibitor (Supplementary Fig S6). […] Incubation with either compound retarded passage of Ls174T cells through all phases of the cell cycle, with the effect being strongest for G1. In contrast to colon carcinoma cells, HUWE1 is not required for proliferation of embryonic stem (ES) cells and deletion of HUWE1 instead delays the decrease of N-MYC levels that occurs upon removal of leukemia inhibitory factor (LIF) from the medium (Zhao et al, [2008]). […] Furthermore, inhibition of HUWE1 in crypt cultures of normal intestinal epithelial cells had no effect on expression of MYC target genes (Fig4G).\nHCT116, HEK293T, HeLa, HT29, ES, Phoenix, and U2OS cells were cultivated in DMEM (Sigma). Ls174T and SW480 cells were grown in RPMI 1640 (Sigma). All media were supplemented with 10% FBS (Biochrom AG) and 1% penicillin/streptomycin (Sigma). Medium for ES cells contained 15% FBS, 1% NEAA (Gibco), 6 μg/ml LIF, and 0.05 mM β-mercaptoethanol (Sigma). […] Quantification of crystal violet staining was performed by extracting dye with 10% acetic acid and measuring absorbance at 590 nm. IC50 values were calculated using the four parameter logistic equation model. […]\nC. Quantification of the staining. […]"}},
  "note": "Read-outs that look alike come from different tables or passages of the source.",
  "data": [
    {"smiles": "Cc1c(C(=O)Nc2ccc(CN)cc2)ncnc1N1CCC(C#N)(c2ccccc2)CC1", "note": "[BI8622]", "values": [
      {"measurement": "IC50", "setting": "HUWE1", "result": 6.8, "unit": "µM"},
      {"measurement": "IC50", "setting": "NEDD4", "result": "> 50", "unit": "µM"},
      {"measurement": "IC50", "setting": "Ls174T cells; control Ls174T cells, read-out: IC50 growth inhibition, ctr cells", "result": 8.1, "unit": "µM"},
      {"measurement": "IC50", "setting": "Ls174T cells; partially HUWE1-depleted Ls174T cells, read-out: IC50 growth inhibition, shHUWE1 cells", "result": 6.5, "unit": "µM"}
    ]}
  ]
}
